Where a name gives a salt, the structure may show the parent alone. Read-outs that look alike come from different tables or passages of the source.
Key:
Format in all cases: physicochemical
Thermal analysis (TGA) = experiment: Thermal analysis (TGA)
From the text: (§1) Thus, this material can be classified as a zero VOC using any of the three methods outlined in CARB Method 310.

[1] = VOC determination per CARB Method 310 (vapor pressure, GC test)
Experimental: Zero VOC can be defined in one of three ways according to California Air Resources Board (CARB) Method 310 for VOC determination: the vapor pressure can be below 0.1 mm Hg at 20° C., the boiling point can be above 216° C., or the compound must pass a gas chromatograph test (EPA Method 18, 8240B, 8260B,
as §1

[2] = Acid dissociation constants by standard titration method; settings: read-out: acid dissociation constant (pKa)
Experimental: (§2) Also using titration, the neutral equivalent is determined to be 168, which matches the molecule's molecular weight. However, upon inclusion into a paint formulation, slightly less (2%) of this molecule is needed to regulate pH than a control compound (2-amino-2-ethyl-1,3-propanediol (AEPD)) with a measured neutralization equivalent of 124. Thus, the second pKa contributes to pH regulation and contributes to the value of the compound as a neutralizer in paint formulations.

[3] = Neutral equivalent by titration
Experimental: as §2

boiling point (Thermal analysis (TGA)) | decomposition temperature (Thermal analysis (TGA)) [°C] | vapor pressure [1] | VOC classification ([1]; any of the three methods outlined in CARB Method 310) | elution on the GC ([1]; cannot be vaporized, GC testing methods for CARB compliance) | pKa ([2]; primary amine) | pKa ([2]; sodium carboxylate) | neutral equivalent / neutralization equivalent [3] | Structure (SMILES)
no boiling point | > 275 | no discernable vapor pressure | zero VOC | does not elute | 9.9 | 6.1 | 168 | CC(C)(N)CNCC(=O)O [Example 1, N-[2-(amino)-2-methylpropyl]-glycine (Sodium Salt)]
– | – | – | – | – | – | – | 124 | CCC(N)(CO)CO [AEPD, 2-amino-2-ethyl-1,3-propanediol, reference compound]

Reference: patent publication US9428445B2, “Amine compounds and their use as zero or low VOC neutralizers” (ANGUS Chemical Company, priority 2012, dated 2016)
